In patent US12459899B2, “Isoquinolinone derivatives, method for preparing the same, and pharmaceutical composition for preventing or treating poly(ADP-ribose) polymerase-1-related diseases, comprising the same as active ingredient” (DIGMBIO. INC., priority 2019, dated 2025):

The compounds below were run against PARP-1 (poly[ADP-ribose] polymerase 1) enzyme (Homo sapiens (Human), UniProt P09874) (assay: PARP-1 (poly[ADP-ribose] polymerase 1) enzyme inhibitory ability, Trevigen assay kit). Conditions: 1 nM compound; read-out: PAR P-1 Inhibitory ability at 1 nM.
Chain of PARP-1 (poly[ADP-ribose] polymerase 1) enzyme (P09874 whole entry): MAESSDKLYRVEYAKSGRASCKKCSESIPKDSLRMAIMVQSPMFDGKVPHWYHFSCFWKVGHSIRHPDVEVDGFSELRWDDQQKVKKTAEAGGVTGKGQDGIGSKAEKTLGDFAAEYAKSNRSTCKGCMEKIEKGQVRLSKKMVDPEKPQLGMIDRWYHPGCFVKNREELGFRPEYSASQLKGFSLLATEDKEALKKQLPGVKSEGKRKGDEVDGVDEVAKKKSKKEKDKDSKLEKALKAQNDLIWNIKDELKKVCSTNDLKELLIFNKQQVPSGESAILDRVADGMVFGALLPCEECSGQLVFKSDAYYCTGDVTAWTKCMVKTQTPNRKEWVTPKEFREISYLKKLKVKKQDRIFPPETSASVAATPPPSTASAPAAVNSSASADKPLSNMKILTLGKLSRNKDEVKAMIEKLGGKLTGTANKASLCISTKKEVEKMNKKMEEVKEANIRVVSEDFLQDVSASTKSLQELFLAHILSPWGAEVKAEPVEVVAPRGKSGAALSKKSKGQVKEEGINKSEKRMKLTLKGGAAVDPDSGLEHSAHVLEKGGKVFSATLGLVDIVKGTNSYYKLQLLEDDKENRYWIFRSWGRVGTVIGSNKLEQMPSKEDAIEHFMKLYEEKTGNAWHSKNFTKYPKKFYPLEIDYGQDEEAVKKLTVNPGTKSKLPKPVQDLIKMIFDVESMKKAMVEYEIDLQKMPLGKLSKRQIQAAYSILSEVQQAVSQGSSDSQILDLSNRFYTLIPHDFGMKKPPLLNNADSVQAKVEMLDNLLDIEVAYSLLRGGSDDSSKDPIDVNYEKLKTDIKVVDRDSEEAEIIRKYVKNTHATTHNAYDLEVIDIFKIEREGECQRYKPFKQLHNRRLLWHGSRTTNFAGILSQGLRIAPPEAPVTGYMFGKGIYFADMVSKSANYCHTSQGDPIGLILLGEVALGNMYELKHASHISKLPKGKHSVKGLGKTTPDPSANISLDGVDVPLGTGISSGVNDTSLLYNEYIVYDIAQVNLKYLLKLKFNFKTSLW
Assay type: biochemical
Procedure: In order to evaluate the PARP-1 (poly[ADP-ribose] polymerase 1) enzyme inhibitory ability of the compounds according to the present invention, an experiment was conducted as follows.
Specifically, in order to evaluate the PARP-1 (poly[ADP-ribose] polymerase 1) enzyme inhibitory ability of the compounds of Examples 1 to 276 according to the present invention, the PARP-1 (poly[ADP-ribose] polymerase 1) activity was investigated in the following manner using an assay kit purchased from Trevigen, Inc. (Catalog number: 4677-096-K). 50 μL of 1×PARP buffer (provided by Trevigen's kit) was dispensed into a 96-well plate coated with histones per each well, and then rehydrated for 30 minutes. After removing the 1×PARP buffer present in the well, PARP-1 (poly[ADP-ribose] polymerase 1) enzyme (0.5 unit/well) and 1 μM concentration or various concentrations of the compounds of Example 1 to 276 were added at room temperature and reacted for 10 minutes. Thereafter, each well was treated with 25 μL of 1×PARP cocktail (biotinylated NAD, activated DNA, provided by Trevigen's kit), and then reacted at room temperature for 1 hour. After the reaction was completed, each well was washed twice with PBS (7.5 mM Na2HPO4, 2.5 mM NaH2PO4, 145 mM NaCl) containing 0.1% triton X-100, and washed twice with PBS. Then, 50 μL of strep-HRP (streptavidin-linked peroxidase) was added and reacted at room temperature for 1 hour, and then washed twice with PBS containing 0.1% triton X-100, and washed twice with PBS. After removing all PBS, 50 μL of TACS-sapphire, a substrate, was added, and reacted at room temperature for 15 minutes while blocking the light. After the reaction was terminated by treatment with 50 μL of 5% phosphoric acid to each well, the absorbance was measured at 450 nm using a microplate reader Victor3 from PerkinElmer, Inc. to quantify the value.

| SMILES | inhibition at 0.001 µM |
| --- | --- |
| Cc1ccc(F)c2c(=O)[nH]c(CCCN3CC=C(c4ccc(F)cc4)CC3)cc12 [Example 53, 8-fluoro-3-(3-(4-(4-fluorophenyl)-3,6-dihydropyridin-1(2H)-yl)propyl)-5-methylisoquinolin-1(2H)-one] | < 50% |
| Cc1ccc(F)c2c(=O)[nH]c(CCCN3CC=C(c4ccc(C#N)cc4)CC3)cc12 [Example 54, 4-(1-(3-(8-fluoro-5-methyl-1-oxo-1,2-dihydroisoquinolin-3-yl)propyl)-1,2,3,6-tetrahydropyridin-4-yl)benzonitrile] | < 50% |
| Cc1ccc(F)c2c(=O)[nH]c(CCCN3CC=C(c4ccc(C#N)c(F)c4)CC3)cc12 [Example 55, 2-fluoro-4-(1-(3-(8-fluoro-5-methyl-1-oxo-1,2-dihydroisoquinolin-3-yl)propyl)-1,2,3,6-tetrahydropyridin-4-yl)benzonitrile] | 50 to 80% |
| Cc1ccc(F)c2c(=O)[nH]c(CCCN3CC=C(c4ccc([N+](=O)[O-])cc4F)CC3)cc12 [Example 56, 8-fluoro-3-(3-(4-(2-fluoro-4-nitrophenyl)-3,6-dihydropyridin-1(2H)-yl)propyl)-5-methylisoquinolin-1(2H)-one] | < 50% |
| Cc1ccc(F)c2c(=O)[nH]c(CCCN3CC=C(c4ccc(C#N)cn4)CC3)cc12 [Example 57, 1′-(3-(8-fluoro-5-methyl-1-oxo-1,2-dihydroisoquinolin-3-yl)propyl)-1′,2′,3′,6′-tetrahydro-[2,4′-bipyridine]-5-carbonitrile] | 50 to 80% |
| Cc1cc(F)cc2c(=O)[nH]c(CCCN3CC=C(c4ccc(C#N)cc4)CC3)cc12 [Example 58, 4-(1-(3-(7-fluoro-5-methyl-1-oxo-1,2-dihydroisoquinolin-3-yl)propyl)-1,2,3,6-tetrahydropyridin-4-yl)benzonitrile] | 50 to 80% |
| Cc1cc(F)cc2c(=O)[nH]c(CCCN3CC=C(c4ccc(F)cc4)CC3)cc12 [Example 59, 7-fluoro-3-(3-(4-(4-fluorophenyl)-3,6-dihydropyridin-1(2H)-yl)propyl)-5-methylisoquinolin-1(2H)-one] | < 50% |
| Cc1cc(F)cc2c(=O)[nH]c(CCCN3CC=C(c4ccc(C#N)cn4)CC3)cc12 [Example 60, 1′-(3-(7-fluoro-5-methyl-1-oxo-1,2-dihydroisoquinolin-3-yl)propyl)-1′,2′,3′,6′-tetrahydro-[2,4′-bipyridine]-5-carbonitrile] | < 50% |
| Cc1cc(F)cc2c(=O)[nH]c(CCCN3CC=C(c4ccc(F)cn4)CC3)cc12 [Example 62, 7-fluoro-3-(3-(5-fluoro-3′,6′-dihydro-[2,4′-bipyridine]-1′(2′H)-yl)propyl)-5-methylisoquinolin-1(2H)-one] | < 50% |
| Cc1cc(F)cc2c(=O)[nH]c(CCCN3CC=C(c4ccc(F)nc4)CC3)cc12 [Example 63, 7-fluoro-3-(3-(6-fluoro-3′,6′-dihydro-[3,4′-bipyridine]-1′(2′H)-yl)propyl)-5-methylisoquinolin-1(2H)-one] | < 50% |
| Cc1cc(F)cc2c(=O)[nH]c(CCCN3CC=C(c4ccc(C(F)(F)F)cc4)CC3)cc12 [Example 64, 7-fluoro-5-methyl-3-(3-(4-(4-(trifluoromethyl)phenyl)-3,6-dihydropyridin-1(2H)-yl)propyl)isoquinolin-1(2H)-one] | < 50% |
| Cc1ccc(F)c2c(=O)[nH]c(CCCN3CCN(C(=O)c4cccc(F)c4)CC3)cc12 [Example 65, 8-fluoro-3-(3-(4-(3-fluorobenzoyl)piperazin-1-yl)propyl)-5-methylisoquinolin-1(2H)-one] | < 50% |
| Cc1ccc(F)c2c(=O)[nH]c(CCCN3CCN(C(=O)c4ccccc4)CC3)cc12 [Example 66, 3-(3-(4-benzoylpiperazin-1-yl)propyl)-8-fluoro-5-methylisoquinolin-1(2H)-one] | < 50% |
| Cc1ccc(F)c2c(=O)[nH]c(CCCN3CCN(C(=O)c4ccc(F)cc4)CC3)cc12 [Example 67, 8-fluoro-3-(3-(4-(4-fluorobenzoyl)piperazin-1-yl)propyl)-5-methylisoquinolin-1(2H)-one] | < 50% |
| N#Cc1ccc(N2CCN(C(=O)CCc3cc4cccc(F)c4c(=O)[nH]3)CC2)cc1 [Example 68, 4-(4-(3-(8-fluoro-1-oxo-1,2-dihydroisoquinolin-3-yl)propanoyl)piperazin-1-yl)benzonitrile] | < 50% |
| N#Cc1ccc(N2CCN(C(=O)CCc3cc4cccc(F)c4c(=O)[nH]3)CC2)cn1 [Example 70, 5-(4-(3-(8-fluoro-1-oxo-1,2-dihydroisoquinolin-3-yl)propanoyl)piperazin-1-yl)picolinonitrile] | < 50% |
| N#Cc1ccc(N2CCN(C(=O)CCc3cc4cccc(F)c4c(=O)[nH]3)CC2)nc1 [Example 71, 6-(4-(3-(8-fluoro-1-oxo-1,2-dihydroisoquinolin-3-yl)propanoyl)piperazin-1-yl)nicotinonitrile] | < 50% |
| N#Cc1cc(F)ccc1N1CCN(C(=O)CCc2cc3cccc(F)c3c(=O)[nH]2)CC1 [Example 76, 5-fluoro-2-(4-(3-(8-fluoro-1-oxo-1,2-dihydroisoquinolin-3-yl)propanoyl)piperazin-1-yl)benzonitrile] | < 50% |
| N#Cc1cccc(N2CCN(C(=O)CCc3cc4cccc(F)c4c(=O)[nH]3)CC2)c1 [Example 77, 3-(4-(3-(8-fluoro-1-oxo-1,2-dihydroisoquinolin-3-yl)propanoyl)piperazin-1-yl)benzonitrile] | < 50% |
| N#Cc1ccc(F)cc1N1CCN(C(=O)CCc2cc3cccc(F)c3c(=O)[nH]2)CC1 [Example 81, 4-fluoro-2-(4-(3-(8-fluoro-1-oxo-1,2-dihydroisoquinolin-3-yl)propanoyl)piperazin-1-yl)benzonitrile] | < 50% |

Continued, values first:

| inhibition at 0.001 µM | SMILES |
| --- | --- |
| < 50% | N#Cc1ccc(C2=CCN(C(=O)CCc3cc4cccc(F)c4c(=O)[nH]3)CC2)cc1 [Example 69, 4-(1-(3-(8-fluoro-1-oxo-1,2-dihydroisoquinolin-3-yl)propanoyl)-1,2,3,6-tetrahydropyridin-4-yl)benzonitrile] |
| < 50% | N#Cc1ccc(N2CCN(C(=O)CCc3cc4cccc(F)c4c(=O)[nH]3)CC2)cc1F [Example 72, 2-fluoro-4-(4-(3-(8-fluoro-1-oxo-1,2-dihydroisoquinolin-3-yl)propanoyl)piperazin-1-yl)benzonitrile] |
| < 50% | N#Cc1ccc(N2CCN(C(=O)CCc3cc4cccc(F)c4c(=O)[nH]3)CC2)c(F)c1 [Example 73, 3-fluoro-4-(4-(3-(8-fluoro-1-oxo-1,2-dihydroisoquinolin-3-yl)propanoyl)piperazin-1-yl)benzonitrile] |
| < 50% | N#Cc1ccccc1N1CCN(C(=O)CCc2cc3cccc(F)c3c(=O)[nH]2)CC1 [Example 74, 2-(4-(3-(8-fluoro-1-oxo-1,2-dihydroisoquinolin-3-yl)propanoyl)piperazin-1-yl)benzonitrile] |
| < 50% | O=C(CCc1cc2cccc(F)c2c(=O)[nH]1)N1CCN(c2ccccc2F)CC1 [Example 75, 8-fluoro-3-(3-(4-(2-fluorophenyl)piperazin-1-yl)-3-oxopropyl)isoquinolin-1(2H)-one] |
| < 50% | O=C(CCc1cc2cccc(F)c2c(=O)[nH]1)N1CCN(c2ccc(F)cc2F)CC1 [Example 78, 3-(3-(4-(2,4-difluorophenyl)piperazin-1-yl)-3-oxopropyl)-8-fluoroisoquinolin-1(2H)-one] |
| < 50% | N#Cc1ccc(F)c(N2CCN(C(=O)CCc3cc4cccc(F)c4c(=O)[nH]3)CC2)c1 [Example 79, 4-fluoro-3-(4-(3-(8-fluoro-1-oxo-1,2-dihydroisoquinolin-3-yl)propanoyl)piperazin-1-yl)benzonitrile] |
| < 50% | N#Cc1cc(N2CCN(C(=O)CCc3cc4cccc(F)c4c(=O)[nH]3)CC2)ccc1F [Example 80, 2-fluoro-5-(4-(3-(8-fluoro-1-oxo-1,2-dihydroisoquinolin-3-yl)propanoyl)piperazin-1-yl)benzonitrile] |
| < 50% | O=C(CCc1cc2cccc(F)c2c(=O)[nH]1)N1CC=C(c2ccccc2F)CC1 [Example 82, 8-fluoro-3-(3-(4-(2-fluorophenyl)-3,6-dihydropyridin-1(2H)-yl)-3-oxopropyl)isoquinolin-1(2H)-one] |
| < 50% | O=C(CCc1cc2cccc(F)c2c(=O)[nH]1)N1CC=C(c2cccc(F)c2)CC1 [Example 83, 8-fluoro-3-(3-(4-(3-fluorophenyl)-3,6-dihydropyridin-1(2H)-yl)-3-oxopropyl)isoquinolin-1(2H)-one] |
| < 50% | N#Cc1cc(F)cc(C2=CCN(C(=O)CCc3cc4cccc(F)c4c(=O)[nH]3)CC2)c1 [Example 84, 3-fluoro-5-(1-(3-(8-fluoro-1-oxo-1,2-dihydroisoquinolin-3-yl)propanoyl)-1,2,3,6-tetrahydropyridin-4-yl)benzonitrile] |

Same assay, conditions: PARP-1 enzyme activity

| SMILES | IC50 |
| --- | --- |
| Cc1ccc(F)c2c(=O)[nH]c(CCCN3CC=C(c4ccc(C#N)cc4)CC3)cc12 [Example 54, 4-(1-(3-(8-fluoro-5-methyl-1-oxo-1,2-dihydroisoquinolin-3-yl)propyl)-1,2,3,6-tetrahydropyridin-4-yl)benzonitrile] | 1.42 nM |
| Cc1ccc(F)c2c(=O)[nH]c(CCCN3CC=C(c4ccc(C#N)c(F)c4)CC3)cc12 [Example 55, 2-fluoro-4-(1-(3-(8-fluoro-5-methyl-1-oxo-1,2-dihydroisoquinolin-3-yl)propyl)-1,2,3,6-tetrahydropyridin-4-yl)benzonitrile] | 1.77 nM |
| Cc1ccc(F)c2c(=O)[nH]c(CCCN3CC=C(c4ccc(C#N)cn4)CC3)cc12 [Example 57, 1′-(3-(8-fluoro-5-methyl-1-oxo-1,2-dihydroisoquinolin-3-yl)propyl)-1′,2′,3′,6′-tetrahydro-[2,4′-bipyridine]-5-carbonitrile] | 0.91 nM |
| Cc1cc(F)cc2c(=O)[nH]c(CCCN3CC=C(c4ccc(C#N)cc4)CC3)cc12 [Example 58, 4-(1-(3-(7-fluoro-5-methyl-1-oxo-1,2-dihydroisoquinolin-3-yl)propyl)-1,2,3,6-tetrahydropyridin-4-yl)benzonitrile] | 1.76 nM |
| N#Cc1ccc(N2CCN(C(=O)CCc3cc4cccc(F)c4c(=O)[nH]3)CC2)cc1 [Example 68, 4-(4-(3-(8-fluoro-1-oxo-1,2-dihydroisoquinolin-3-yl)propanoyl)piperazin-1-yl)benzonitrile] | 1.9 nM |
